# pIC50: −log10 of the molar value.
# Molecular target: T1, aldose reductase (Rattus norvegicus, UniProt P07943)
# T1 construct: Then their crystalline lenses were immediately removed and stored at -80° C; The lenses were homogenized; from tissue; host or cells: crystalline lenses of six-week-old male SD rats
# Test: Aldose reductase inhibitory effect (enzyme from crystalline lenses, DL-glyceraldehyde substrate)
# Type: biochemical, rat (male SD)
# Conditions: 10 mM DL-glyceraldehyde, pH 6.2, 30° C.
# Procedure: Six-weeks-old male SD rates were anesthetized with ether and killed. Then their crystalline lenses were immediately removed and stored at -80° C. […] All operations were conducted at 4° C. and the enzyme solution was stored at -80° C.
# More specifically, 0.1 ml of DL glyceraldehyde (final concentration: 10 mM) was added to 0.9 ml of 100 mM sodium potassium phosphate buffer (pH 6.2) which contained lithium sulfate (final concentration: 400 mM), reduced nicotinamide adenine dinucleotide phosphate (final concentration: 0.15 mM), the enzyme solution, and the compound to be evaluated (final concentration: 10^-6 M, 10^-7 M or […]), and then the reaction was conducted at 30° C. for 5 minutes. During the reaction, the change in the absorbance at 340 nm with time was monitored. The maximum reducing rate of the absorbance (U) during the reaction was determined. By subtracting, from this value, the maximum reducing rate (Uo) at 340 nm of the reaction solution before the addition of the substrate (DL-glyceraldehyde), the reaction rate (V=U-Uo) was calculated as a true reaction rate in the presence of the compound to be tested.
# The same procedure was repeated except for the absence of the compound to be tested. A true reaction rate (Vo) in case the enzyme was not inhibited was calculated (Vo =U'-Uo '). The aldose reductase inhibitory activity of the test compounds was determined according to the following formula:
# Rate of Inhibition (%)=(Vo -V)/Vo ×100
row,SMILES,pIC50
1,"COC(=O)Cn1nnnc1-c1ccsc1 [Example 1-5, methyl [5-(3-thienyl)tetrazol-1-yl] acetate]",6.02
2,"COC(=O)Cn1nnnc1-c1ccoc1 [Example 1-7, methyl (5-(3-furyl)tetrazol-1-yl] acetate]",6.13
3,"COC(=O)Cn1nnnc1-c1sccc1NS(=O)(=O)c1ccccc1 [Example 1-27, methyl [5-(3-phenylsulfonylamino-2-thienyl)tetrazol-1-yl acetate]",6.64
4,"O=C(O)Cn1nnnc1-c1ccco1 [Example 2-6, [5-(2-furyl)tetrazol-1-yl] acetic acid]",7.22
5,"CCCCOc1ccsc1-c1nnnn1CC(=O)O [Example 2-16, [5-(3-butoxy-2-thienyl)tetrazol-1-yl] acetic acid]",7.51
6,"CCCCOCc1ccc(-c2nnnn2CC(=O)O)s1 [Example 2-23, [5-(5-butoxymethyl-2-thienyl)tetrazol-1-yl] acetic acid]",7.60
7,"O=C(O)Cn1nnnc1-c1ccsc1Br [Example 2-24, [5-(2-bromo-3-thienyl)tetrazol-1-yl] acetic acid]",7.42
8,"CSc1sccc1-c1nnnn1CC(=O)O [Example 2-26, [5-(2-methylthio-3-thienyl)tetrazol-1-yl] acetic acid]",7.51
9,"Cc1ccc(-c2nnnn2CC(=O)O)o1 [Example 2-27, [5-(5-methyl-2-furyl)tetrazol-1-yl] acetic acid]",6.82
10,"CCCCc1ccc(-c2nnnn2CC(=O)O)o1 [Example 2-28, [5-(5-butyl-2-furyl)tetrazol1-yl-] acetic acid]",6.89
11,"O=C(O)Cn1nnnc1-c1ccc(Br)o1 [Example 2-29, [5-(5-bromo-2-furyl)tetrazol-1-yl] acetic acid]",6.80
12,"CSc1ccc(-c2nnnn2CC(=O)O)o1 [Example 2-30, [5-(5-methylthio-2-furyl)tetrazol-1-yl] acetic acid]",6.96
13,"O=C(O)Cn1nnnc1-c1ccoc1Br [Example 2-31, [5-(2-bromo-3-furyl)tetrazol-1-yl] scetic acid]",7.07
14,"CSc1occc1-c1nnnn1CC(=O)O [Example 2-32, [5-(2-methylthio-3-furyl)tetrazol-1-yl] acetic acid]",7.46
15,"CCN(CC)S(=O)(=O)c1ccc(-c2nnnn2CC(=O)O)s1 [Example 2-35, [5-[5-(N,N-diethylaminosulfonyl)-2-thienyl]tetrazol-1-yl] acetic acid]",6.41
16,CCCCN(CCCC)S(=O)(=O)c1ccc(-c2nnnn2CC(=O)O)s1 [Example 2-36],7.07
17,"O=C(O)Cn1nnnc1-c1ccc(S(=O)(=O)N2CCCCC2)s1 [Example 2-37, [5-(5-piperidinosulfonyl2-thienyl)tetrazol-1-yl] acetic acid]",6.64
18,"CCN(CC)S(=O)(=O)c1sccc1-c1nnnn1CC(=O)O [Example 2-38, [5-[2-(N,N-diethylaminosulfonyl)-3-thienyl)tetrazol-1-yl] acetic acid]",6.34
19,"C[S+]([O-])c1sccc1-c1nnnn1CC(=O)O (centres unmarked) [Example 2-43, [5-(2-methylsulfinyl-3-thienyl)tetrazol-1-yl] acetic acid]",6.52
20,"CS(=O)(=O)c1sccc1-c1nnnn1CC(=O)O [Example 2-44, [5-(2-methylsulfonyl-3-thienyl)tetrazol-1-yl] acetic acid]",6.28
21,"CCOC(=O)Cn1nnnc1-c1ccsc1 [Example 3-2, ethyl [5-(3-thienyl)tetrazol-1-yl] acetate]",6.24
22,"CCCCc1ccc(-c2nnnn2CC(=O)OC)s1 [Example 3-5, methyl [5-(5-butyl-2-thienyl)tetrazol-1-yl] acetate]",6.74

# The remaining compounds from weak to strong by pIC50, led by results:
row,pIC50,SMILES
1,7.51,"COCc1ccc(-c2nnnn2CC(=O)O)s1 [Example 2-22, [5-(5-methoxymethyl-2-thienyl)tetrazol-1-yl] acetic acid]"
2,7.54,"COc1ccsc1-c1nnnn1CC(=O)O [Example 2-15, [5-(3-methoxy-2-thienyl)tetrazol-1-yl] acetic acid]"
3,7.55,CC(=O)Nc1ccsc1-c1nnnn1CC(=O)O [Example 2-17]
4,7.55,"O=C(O)Cn1nnnc1-c1ccc(CCCc2ccccc2)s1 [Example 2-21, [5-(5-phenylpropyl-2-thienyl)tetrazol-1-yl] acetate acid]"
5,7.55,"CS(=O)(=O)Nc1ccsc1-c1nnnn1CC(=O)O [Example 2-39, [5-(3-methylsulfonylamino-2-thienyl)tetrazol-1-yl] acetic acid]"
6,7.59,"O=C(O)Cn1nnnc1-c1ccc(Sc2ccccc2)s1 [Example 2-34, [5-(5-phenylthio-2-thienyl)tetrazol-1-yl] acetic acid]"
7,7.60,"O=C(O)Cn1nnnc1-c1ccc(CBr)s1 [Example 2-13, [5-(5-bromomethyl-2-thienyl)tetrazol-1-yl] acetic acid]"
8,7.62,"Cc1csc(-c2nnnn2CC(=O)O)c1 [Example 2-3, [5-(4-methyl-2-thienyl)tetrazol-1-yl] acetic acid]"
9,7.62,"O=C(O)Cn1nnnc1-c1sccc1NC(=O)CCc1ccccc1 [Example 2-19, [5-(3-phenethylcarbonylamino-2-thienyl)tetrazol-1-yl] acetic acid]"
10,7.62,"O=C(O)Cn1nnnc1-c1ccsc1Sc1ccccc1 [Example 2-33, [5-(2-phenylthio-3-thienyl)tetrazol-1-yl] acetic acid]"
11,7.64,"Cc1ccc(-c2nnnn2CC(=O)O)s1 [Example 2-4, [5-(5-methyl-2-thienyl)tetrazol-1-yl] acetic acid]"
12,7.64,"CCCCc1ccc(-c2nnnn2CC(=O)O)s1 [Example 2-20, [5-(5-butyl-2-thienyl)tetrazol-1-yl] acetic acid]"
13,7.64,"O=C(O)Cn1nnnc1-c1sccc1NS(=O)(=O)c1ccccc1 [Example 2-41, [5-(3-phenylsulfonylamino-2-thienyl)tetrazol-1-yl] acetic acid]"
14,7.68,"CCc1ccc(-c2nnnn2CC(=O)O)s1 [Example 2-8, [5-(5-ethyl-2-thienyl)tetrazol-1-yl] acetic acid]"
15,7.68,"O=C(O)Cn1nnnc1-c1ccc(-c2ccccc2)s1 [Example 2-14, [5-(5-phenyl-2-thienyl)tetrazol-1-yl] acetic acid]"
16,7.70,"O=C(O)Cn1nnnc1-c1ccc(Cc2ccccc2)s1 [Example 2-9, [5-(5-benzyl-2-thienyl)tetrazol-1-yl] acetic acid]"
17,7.70,CSc1ccc(-c2nnnn2CC(=O)O)s1 [Example 2-10]
18,7.70,"CCCC(=O)Nc1ccsc1-c1nnnn1CC(=O)O [Example 2-18, [5-(3-propylcarbonylamino-2-thienyl)tetrazol-1-yl] acetic acid]"
19,7.70,"O=C(O)Cn1nnnc1-c1sccc1O [Example 2-42, [5-(3-hydroxy-2-thienyl)tetrazol-1-yl] acetic acid]"
20,7.72,"O=C(O)Cn1nnnc1-c1ccc(Br)s1 [Example 2-11, [5-(5-bromo-1-thienyl)tetrazol-1-yl] acetic acid]"
21,7.80,"CCCCS(=O)(=O)Nc1ccsc1-c1nnnn1CC(=O)O [Example 2-40, [5-(3-butylsulfonylamino-2-thienyl)tetrazol-1-yl] acetic acid]"
22,8.00,"Cc1sccc1-c1nnnn1CC(=O)O [Example 2-12, [5-(2-methyl-3-thienyl)tetrazol-1-yl] acetic acid]"

# — USRE35321E, “Tetrazoleacetic acid derivatives having aldose reductase inhibitory activity” (Wakamoto Pharmaceutical Co., Ltd., priority 1990, dated 1996)
